According to the AptaBench aptamer set (doi:10.1093/nar/gkaf219):

Experiments:
Settings in all cases: 10 mM Tris-HCl, pH 7.4
[1] = system: DNA aptamer or structured DNA GGGACGACTAGCTGGTGCGTTGTCCGAAGTCATGAGTAGTCGTCCC
[2] = system: DNA aptamer or structured DNA CTTACGACTAGGTGTGGGTCGGCTCCGGATGGAGGGTAGTCGTAAG
[3] = system: DNA aptamer or structured DNA CTTACGACGGTCTTTTGGGTGTTCTGGGTGGGAGGAGCGTCGTAAG
[4] = system: DNA aptamer or structured DNA GGGACGACTAGCCGTGGCGTTGTCCGAACCAGTGAGTAGTCGTCCC
[5] = system: DNA aptamer or structured DNA GGGACGACGGGATGGTAAGTGGCAGGTCGTTGGAATTTCTACTGTATCGTCGTCCC
[6] = system: DNA aptamer or structured DNA GGGACGACAGCTTGGCTTGGTCGGGGTAGGGTTCGGATGTCGTCCC
[7] = system: DNA aptamer or structured DNA CTTACGACACAGGGGGGGGCTAGGGTGCGCGGGAGCTGGTCGTAAG
[8] = system: DNA aptamer or structured DNA CTTACGACGTGTGCTGTTGGTTCTAGGGTAGGATGGCGTCGTAAG
[9] = system: DNA aptamer or structured DNA GGGACGACGGGATTCGGATCGTGGAACAGTGCCTCGTCGTCGTCCC
[10] = system: DNA aptamer or structured DNA CTTACGACTAGTTCCGGGTAGGGGTAGGCGTGGTTGTGGTCGTAAG
[11] = system: DNA aptamer or structured DNA TTCAAATCTTGGTACGTTCTGCCTTTTCTTATTTTGCTTTGGGTTACCTAGTCTAGATTTGAA
[12] = system: DNA aptamer or structured DNA CTTACGACGTAGCTTCGGGTGTTCTGGGTGAGCTCTGCGTCGTAAG
[13] = system: DNA aptamer or structured DNA CTTACGACGACCTAGTGGGGGTAGTTATAGTTGGGTGAGTCGTAAG
[14] = system: DNA aptamer or structured DNA TTCAAATCTTATGTACGTTCTATCGCATGGATGGGATTTTGGGTTACCTAGTCTAGATTTGAA
[15] = system: DNA aptamer or structured DNA CTTACGACACAGGGGGTGGCTAGGGTGCGCGGGAGCTGGTCGTAAG
[16] = system: DNA aptamer or structured DNA CTTACGACAAACTTTTGGGTATCTGGTTGGGAGGTTCTGTCGTAAG
[17] = system: DNA aptamer or structured DNA CTTACGACCACCATGGGAATCGGGTGGCTTGGAGGTGCGTCGTAAG
[18] = system: DNA aptamer or structured DNA CTTACGACTTTTGGGTGTCTGGGTGGGAGGTCGTAAG
[19] = system: DNA aptamer or structured DNA GGGACGACAGTGGCGTTTATGGGTCGGGTGTGGGAAATGTCGTCCC
[20] = system: DNA aptamer or structured DNA CTTACGACAAGGGATGTGAGTTAGTGTGTCGGATCTATGTCGTAAG
[21] = system: DNA aptamer or structured DNA CTTACGACGCGGACGTTGTGGGGCGTGGCAGTCGGTGGGTCGTAAG
[22] = system: DNA aptamer or structured DNA CTTACGACTTTGGTTTCCTCGATTCGCATGGGTGGTAAGTCGTAAG
[23] = system: DNA aptamer or structured DNA CTTACGACACAGGGGGGGGCTAGGGTGCGCGGAAGCTGGTCGTAAG
[24] = system: DNA aptamer or structured DNA CTTACGACGGGTGCTGTTGGTTCTAGGGGTAGGATGGCGTCGTAAG
[25] = system: DNA aptamer or structured DNA CTTACGACGTGTGCTGTTGGTTCTAGGGTTAGGATGGCGTCGTAAG
[26] = system: DNA aptamer or structured DNA CTTACGACGGAGGTTGGGAAGGAGGGGGAGGCCGGAGAGTCGTAAG
[27] = system: DNA aptamer or structured DNA CTTACGACGTTGGGCTTATTAGGGGCTGGAGTGGGTGAGTCGTAAG
[28] = system: DNA aptamer or structured DNA CTTACGACACATTTGGGTATTCTGGGTGAGCTGTGTCGTAAG
[29] = system: DNA aptamer or structured DNA GGGACGACGGGGCTCTTACCCTGGAGGGTAGAAGGGGAGGTGTGGTCAGTCGTCCC
[30] = system: DNA aptamer or structured DNA CTTACGACCAGGCTACGTGGGGGAGGGTGGGAAGACGGGTCGTAAG
[31] = system: DNA aptamer or structured DNA CTTACGACTGGGATGTGTTGTTAGTGCTGTCGGATCCGGTCGTAAG
[32] = system: DNA aptamer or structured DNA CTTACGACTAGGTGTGGGTCGGCTCAATTCGGAGGGTAGTCGTAAG
[33] = system: DNA aptamer or structured DNA CTTACGACTAGGCGGGGGTCGGCCACCGAGGTGGGGTAGTCGTAAG
[34] = system: DNA aptamer or structured DNA CTTACGACAATCTTTTGGGTGTTCTGGGTGAGGTGTTTGTCGTAAG
For binding call in this document: call rule not given here.

CCN(CC)CCOC(=O)c1ccc(N)cc1
binding call [1]: no binding
binding call [2]: no binding
binding call [3]: no binding
binding call [4]: no binding
binding call [5]: binds
binding call [6]: binds
binding call [7]: binds
binding call [8]: binds
binding call [9]: no binding
binding call [10]: binds
binding call [11]: no binding
binding call [12]: no binding
binding call [13]: no binding
binding call [14]: no binding
binding call [15]: binds
binding call [16]: no binding
binding call [17]: binds
binding call [18]: no binding
binding call [19]: binds
binding call [20]: binds
binding call [21]: no binding
binding call [22]: no binding
binding call [23]: binds
binding call [24]: binds
binding call [25]: binds
binding call [26]: no binding
binding call [27]: no binding
binding call [28]: no binding
binding call [29]: no binding
binding call [30]: no binding
binding call [31]: binds
binding call [32]: no binding

COC(=O)[C@@H]1C2CCC(C[C@@H]1OC(=O)c1ccccc1)N2C (stereo not given in full)
binding call [1]: no binding
Kd [33]: 315 nM
Kd [2]: 510 nM
binding call [5]: no binding
Kd [7]: 282 nM
Kd [8]: 93 nM
binding call [9]: no binding
Kd [10]: 70 nM
binding call [11]: no binding
Kd [12]: 833 nM
Kd [34]: 378 nM
Kd [15]: 76 nM
binding call [17]: no binding
Kd [18]: 67 nM
binding call [19]: no binding
Kd [20]: 152 nM
Kd [21]: 372 nM
Kd [22]: 239 nM
Kd [23]: 155 nM
Kd [24]: 107 nM
Kd [25]: 98 nM
binding call [26]: no binding
Kd [27]: 617 nM
Kd [28]: 602 nM
binding call [29]: binds
binding call [30]: no binding
Kd [31]: 204 nM
Kd [32]: 461 nM
